Laboratory results as given in ChEMBL document CHEMBL1201862, “PubChem BioAssay data set” (2004).
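Results reflect a 48-hour exposure of cells in 96-well plates to compound at five concentrations. GI50 marks 50% less growth.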 Activity calls are given as the source filed them. No stated cut-off is given here; in the data, active = GI50 up to about 1.1 µM and inactive = higher.

Columns and labels:
Test in all cases: NCI anticancer screen, dose series, 48 h
786-0 = test system: 786-0
A498 = test system: A498
A549 = test system: A549
ACHN = test system: ACHN
CCRF-CEM = test system: CCRF-CEM
COLO 205 = test system: COLO 205
DLD-1 = test system: DLD-1
DMS-114 = test system: DMS-114
DMS-273 = test system: DMS-273
EKVX = test system: EKVX
HCC 2998 = test system: HCC 2998
HCT-116 = test system: HCT-116
HL-60 = test system: HL-60
HOP-18 = test system: HOP-18
HOP-62 = test system: HOP-62
HOP-92 = test system: HOP-92
HT-29 = test system: HT-29
K562 = test system: K562
KM-20L2 = test system: KM-20L2
KM12 = test system: KM12
LOX IMVI = test system: LOX IMVI
LXFL 529 = test system: LXFL 529
M14 = test system: M14
M19-MEL = test system: M19-MEL
MOLT-4 = test system: MOLT-4
Malme-3M = test system: Malme-3M
NCI-H226 = test system: NCI-H226
NCI-H23 = test system: NCI-H23
NCI-H522 = test system: NCI-H522
OVCAR-3 = test system: OVCAR-3
OVCAR-5 = test system: OVCAR-5
OVCAR-8 = test system: OVCAR-8
RPMI-8226 = test system: RPMI-8226
RXF 393 = test system: RXF 393
SF-268 = test system: SF-268
SF-295 = test system: SF-295
SF-539 = test system: SF-539
SK-MEL-28 = test system: SK-MEL-28
SK-MEL-2 = test system: SK-MEL-2
SK-OV-3 = test system: SK-OV-3
SN12C = test system: SN12C
SNB-19 = test system: SNB-19
SNB-75 = test system: SNB-75
SNB-78 = test system: SNB-78
SR = test system: SR
SW-620 = test system: SW-620
TK-10 = test system: TK-10
U-251 = test system: U-251
UACC-257 = test system: UACC-257
UACC-62 = test system: UACC-62
UO-31 = test system: UO-31
XF498 = test system: XF498
IGROV-1 = test system: IGROV-1
NCI-H460 = test system: NCI-H460
RXF 631 = test system: RXF 631

Measured: GI50

COc1ccc2c(C(=O)O)cc3ccccc3c2c1OC
inactive: 786-0 15.7 µM | A498 18.8 µM | A549 30 µM | ACHN 16.3 µM | CCRF-CEM 24.8 µM | COLO 205 22.1 µM | DLD-1 30.9 µM | DMS-114 17.7 µM | DMS-273 23.5 µM | EKVX 20.1 µM | HCC 2998 21.2 µM | HCT-116 18.6 µM | HL-60 27.1 µM | HOP-18 15.5 µM | HOP-62 69.3 µM | HOP-92 21.9 µM | HT-29 21.6 µM | K562 24.2 µM | KM-20L2 22.8 µM | KM12 18.3 µM | LOX IMVI 17.6 µM | LXFL 529 17.1 µM | M14 16.4 µM | M19-MEL 21.3 µM | MOLT-4 32.9 µM | Malme-3M 21.9 µM | NCI-H226 24.4 µM | NCI-H23 22.2 µM | NCI-H522 13.8 µM | OVCAR-3 16.6 µM | OVCAR-5 19.1 µM | OVCAR-8 22 µM | RPMI-8226 31 µM | RXF 393 15.2 µM | SF-268 19.4 µM | SF-295 47 µM | SF-539 23.7 µM | SK-MEL-28 18.5 µM | SK-MEL-2 30.5 µM | SK-OV-3 38.5 µM | SN12C 20.9 µM | SNB-19 43.6 µM | SNB-75 28.4 µM | SNB-78 16.9 µM | SR 30.5 µM | SW-620 19.4 µM | TK-10 19.1 µM | U-251 40.9 µM | UACC-257 17.1 µM | UACC-62 15.2 µM | UO-31 17.2 µM | XF498 15.8 µM

COc1ccc(C(=O)O)c2c(=O)c3cccnc3[nH]c12
inactive: A498 > 100 µM | A549 > 100 µM | ACHN > 100 µM | CCRF-CEM > 100 µM | DMS-114 > 100 µM | EKVX > 100 µM | HCT-116 > 100 µM | HL-60 > 100 µM | HOP-62 > 100 µM | HOP-92 > 100 µM | HT-29 > 100 µM | IGROV-1 > 100 µM | KM-20L2 > 100 µM | KM12 > 100 µM | M14 > 100 µM | M19-MEL > 100 µM | MOLT-4 > 100 µM | NCI-H23 > 100 µM | NCI-H460 > 100 µM | NCI-H522 > 100 µM | OVCAR-5 > 100 µM | OVCAR-8 > 100 µM | RXF 393 > 100 µM | RXF 631 > 100 µM | SF-295 > 100 µM | SK-MEL-28 > 100 µM | SK-OV-3 > 100 µM | SNB-19 > 100 µM | SNB-78 > 100 µM | SR > 100 µM | TK-10 > 100 µM | U-251 > 100 µM | UACC-257 > 100 µM | UACC-62 46.1 µM | UO-31 > 100 µM
